For one compound, IC50 results are on record in ChEMBL document CHEMBL5725788, “Tricyclic heterocyclic compounds as phosphoinositide 3-kinase inhibitors” (2017).

What is called IC50 is the concentration at which inhibition is half-maximal.

In experiment [1] the target is Phosphatidylinositol 4,5-bisphosphate 3-kinase catalytic subunit alpha isoform (Homo sapiens, UniProt P42336). As to the kind of experiment: (§1) Biochemical Assay: PI3K Isoform using biochemical assay.
Experiment [2] addresses Phosphatidylinositol 4,5-bisphosphate 3-kinase catalytic subunit beta isoform (Homo sapiens, UniProt P42338). Described as §1.
The target of experiment [3] is Phosphatidylinositol 4,5-bisphosphate 3-kinase catalytic subunit gamma isoform (Homo sapiens, UniProt P48736). The description is as §1.
Phosphatidylinositol 4,5-bisphosphate 3-kinase catalytic subunit gamma isoform, sequence (P48736 whole entry, canonical isoform): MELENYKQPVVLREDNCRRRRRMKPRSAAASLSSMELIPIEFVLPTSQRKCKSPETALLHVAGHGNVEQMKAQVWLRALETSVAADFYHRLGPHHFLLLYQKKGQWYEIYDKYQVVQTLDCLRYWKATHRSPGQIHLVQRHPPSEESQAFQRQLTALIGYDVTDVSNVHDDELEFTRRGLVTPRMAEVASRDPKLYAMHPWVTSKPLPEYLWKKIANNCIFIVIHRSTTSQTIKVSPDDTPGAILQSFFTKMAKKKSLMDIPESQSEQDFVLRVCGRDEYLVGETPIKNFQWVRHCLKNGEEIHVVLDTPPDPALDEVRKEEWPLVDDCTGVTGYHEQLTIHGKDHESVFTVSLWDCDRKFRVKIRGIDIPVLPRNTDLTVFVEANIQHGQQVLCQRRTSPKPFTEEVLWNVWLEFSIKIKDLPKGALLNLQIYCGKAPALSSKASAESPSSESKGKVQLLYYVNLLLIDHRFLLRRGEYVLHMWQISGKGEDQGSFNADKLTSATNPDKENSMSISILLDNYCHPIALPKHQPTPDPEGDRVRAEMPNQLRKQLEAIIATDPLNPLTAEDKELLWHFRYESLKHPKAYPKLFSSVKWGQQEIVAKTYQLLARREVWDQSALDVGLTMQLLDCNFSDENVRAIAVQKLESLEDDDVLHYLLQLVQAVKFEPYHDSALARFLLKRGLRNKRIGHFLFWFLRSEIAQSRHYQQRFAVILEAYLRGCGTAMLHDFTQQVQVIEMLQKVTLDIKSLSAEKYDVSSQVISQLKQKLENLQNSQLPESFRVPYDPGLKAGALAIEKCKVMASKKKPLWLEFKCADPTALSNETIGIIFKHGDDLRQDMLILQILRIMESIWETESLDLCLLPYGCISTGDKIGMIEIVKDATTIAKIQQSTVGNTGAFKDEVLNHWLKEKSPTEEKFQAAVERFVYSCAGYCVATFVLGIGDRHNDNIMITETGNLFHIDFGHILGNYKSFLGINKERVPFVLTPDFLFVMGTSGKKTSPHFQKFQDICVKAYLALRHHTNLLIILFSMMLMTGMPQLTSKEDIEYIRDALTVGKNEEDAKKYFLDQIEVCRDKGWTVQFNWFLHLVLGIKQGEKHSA
For experiment [4], the target named is T1, Phosphatidylinositol 4,5-bisphosphate 3-kinase catalytic subunit delta isoform (Homo sapiens, UniProt O00329).
T1 sequence (O00329 whole entry): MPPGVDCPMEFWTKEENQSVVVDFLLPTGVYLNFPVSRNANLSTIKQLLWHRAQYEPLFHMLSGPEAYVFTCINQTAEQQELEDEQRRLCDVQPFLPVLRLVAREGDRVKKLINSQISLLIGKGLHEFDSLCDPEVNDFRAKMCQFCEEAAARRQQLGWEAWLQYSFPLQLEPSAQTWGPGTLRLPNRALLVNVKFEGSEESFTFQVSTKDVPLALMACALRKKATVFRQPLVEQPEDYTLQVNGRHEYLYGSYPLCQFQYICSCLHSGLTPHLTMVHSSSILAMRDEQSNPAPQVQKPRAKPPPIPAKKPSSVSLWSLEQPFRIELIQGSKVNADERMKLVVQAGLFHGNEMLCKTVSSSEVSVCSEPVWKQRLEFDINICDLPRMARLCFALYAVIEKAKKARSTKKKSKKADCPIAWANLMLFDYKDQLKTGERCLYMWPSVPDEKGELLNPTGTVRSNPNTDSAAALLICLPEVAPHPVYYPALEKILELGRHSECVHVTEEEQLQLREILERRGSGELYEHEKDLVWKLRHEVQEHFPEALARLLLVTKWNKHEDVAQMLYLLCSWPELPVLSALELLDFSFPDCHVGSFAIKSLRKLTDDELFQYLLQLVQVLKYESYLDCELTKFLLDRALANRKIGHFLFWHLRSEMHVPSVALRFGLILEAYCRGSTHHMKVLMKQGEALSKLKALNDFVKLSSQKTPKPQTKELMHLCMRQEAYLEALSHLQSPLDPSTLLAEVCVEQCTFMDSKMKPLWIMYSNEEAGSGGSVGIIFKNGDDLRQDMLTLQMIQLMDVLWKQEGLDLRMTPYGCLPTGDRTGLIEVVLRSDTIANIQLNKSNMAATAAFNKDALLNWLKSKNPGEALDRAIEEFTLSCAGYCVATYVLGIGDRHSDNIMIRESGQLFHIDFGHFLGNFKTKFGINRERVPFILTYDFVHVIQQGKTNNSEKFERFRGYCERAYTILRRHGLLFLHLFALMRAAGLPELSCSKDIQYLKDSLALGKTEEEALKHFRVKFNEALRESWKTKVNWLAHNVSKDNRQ
Described as §1.

Phosphatidylinositol 4,5-bisphosphate 3-kinase catalytic subunit beta isoform, sequence (P42338 whole entry, canonical isoform): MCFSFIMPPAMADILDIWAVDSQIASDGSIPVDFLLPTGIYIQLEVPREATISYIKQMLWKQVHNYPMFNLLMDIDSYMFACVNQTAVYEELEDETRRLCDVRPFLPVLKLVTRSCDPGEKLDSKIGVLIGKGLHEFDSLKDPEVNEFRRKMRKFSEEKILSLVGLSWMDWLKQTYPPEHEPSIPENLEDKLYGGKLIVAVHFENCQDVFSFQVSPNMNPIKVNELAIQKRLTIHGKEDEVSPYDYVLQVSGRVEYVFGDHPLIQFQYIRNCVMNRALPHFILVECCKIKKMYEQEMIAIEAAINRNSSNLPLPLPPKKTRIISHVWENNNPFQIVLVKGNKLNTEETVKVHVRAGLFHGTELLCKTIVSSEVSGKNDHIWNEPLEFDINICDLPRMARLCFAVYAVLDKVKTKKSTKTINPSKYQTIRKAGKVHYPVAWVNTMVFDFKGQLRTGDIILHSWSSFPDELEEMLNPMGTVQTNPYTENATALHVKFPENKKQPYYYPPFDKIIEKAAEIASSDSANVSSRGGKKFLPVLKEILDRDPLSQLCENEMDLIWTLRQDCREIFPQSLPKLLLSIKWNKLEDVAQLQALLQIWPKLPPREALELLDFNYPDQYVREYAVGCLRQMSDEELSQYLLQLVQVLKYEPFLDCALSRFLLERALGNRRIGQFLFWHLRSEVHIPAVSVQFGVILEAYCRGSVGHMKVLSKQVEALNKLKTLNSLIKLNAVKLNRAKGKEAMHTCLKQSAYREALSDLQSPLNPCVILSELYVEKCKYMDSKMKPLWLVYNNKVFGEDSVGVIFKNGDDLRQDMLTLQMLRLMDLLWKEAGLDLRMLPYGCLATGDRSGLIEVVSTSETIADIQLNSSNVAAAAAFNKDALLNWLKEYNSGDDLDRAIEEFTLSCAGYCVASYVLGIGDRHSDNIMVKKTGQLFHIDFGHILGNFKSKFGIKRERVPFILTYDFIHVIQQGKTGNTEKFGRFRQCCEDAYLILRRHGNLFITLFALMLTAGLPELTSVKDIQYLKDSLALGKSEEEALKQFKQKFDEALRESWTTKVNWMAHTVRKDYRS
Phosphatidylinositol 4,5-bisphosphate 3-kinase catalytic subunit alpha isoform, sequence (P42336 whole entry, canonical isoform): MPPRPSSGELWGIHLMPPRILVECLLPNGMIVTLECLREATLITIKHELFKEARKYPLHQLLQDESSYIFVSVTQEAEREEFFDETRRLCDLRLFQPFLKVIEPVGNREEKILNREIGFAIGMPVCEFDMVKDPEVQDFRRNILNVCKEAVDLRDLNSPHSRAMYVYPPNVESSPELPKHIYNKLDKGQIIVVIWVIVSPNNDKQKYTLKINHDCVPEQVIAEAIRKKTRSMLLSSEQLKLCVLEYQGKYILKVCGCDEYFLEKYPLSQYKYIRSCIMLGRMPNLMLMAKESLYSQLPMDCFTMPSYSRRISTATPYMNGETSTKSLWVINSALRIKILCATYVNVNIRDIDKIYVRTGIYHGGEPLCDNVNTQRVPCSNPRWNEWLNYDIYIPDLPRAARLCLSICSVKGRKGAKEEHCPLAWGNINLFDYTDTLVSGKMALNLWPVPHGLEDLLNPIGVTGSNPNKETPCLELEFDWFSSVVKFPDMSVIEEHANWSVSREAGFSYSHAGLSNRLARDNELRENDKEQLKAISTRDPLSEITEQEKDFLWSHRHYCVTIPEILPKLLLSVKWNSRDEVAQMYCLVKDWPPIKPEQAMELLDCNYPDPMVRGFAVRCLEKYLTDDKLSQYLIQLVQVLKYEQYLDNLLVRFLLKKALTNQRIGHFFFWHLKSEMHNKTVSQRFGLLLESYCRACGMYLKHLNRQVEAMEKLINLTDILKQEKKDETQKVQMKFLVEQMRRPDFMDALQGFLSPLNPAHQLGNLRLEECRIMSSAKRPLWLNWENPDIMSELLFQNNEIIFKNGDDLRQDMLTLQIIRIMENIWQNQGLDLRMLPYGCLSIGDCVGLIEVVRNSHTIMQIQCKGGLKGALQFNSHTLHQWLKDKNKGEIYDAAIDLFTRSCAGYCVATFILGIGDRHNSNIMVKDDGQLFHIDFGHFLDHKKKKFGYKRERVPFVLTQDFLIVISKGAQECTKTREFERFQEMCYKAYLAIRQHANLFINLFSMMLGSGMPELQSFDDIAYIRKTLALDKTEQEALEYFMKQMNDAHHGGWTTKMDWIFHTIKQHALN

Turning to `c1cc(-c2nc(N3CCOCC3)c3oc4ncc(CN5CCCCC5)cc4c3n2)c2cc[nH]c2c1`, the IC50 in experiment [1] came to 508 nM; in experiment [2], 503 nM; in experiment [3], 4950 nM; in experiment [4] it was 10 nM.
